In patent US7794936B1, “Using thymidine analogs to improve replication in an expanded genetic alphabet” (priority 2006, dated 2010):

What was measured:
[1] = tested on: 2-aminoadenine; settings: cited from earlier work
[2] = biological target: T1, KlenTaq polymerase (Thermus aquaticus, UniProt P19821); experiment: Running-start primer extension reactions, incorporation opposite template isoG; format: biochemical; settings: template T-1, primer P-1, 72° C.; for incorporation / misincorporation opposite isoG (gel band, in words): time points 0.5, 1.0, 3.0 min
T1 construct: The “Klenow” fragment of Taq polymerase (Titanuim™ Taq) was purchased from BD Biosciences; purchased BD Biosciences (Mountain View, Calif.)
Description: (§1) The “Klenow” fragment of Taq polymerase (Titanuim™ Taq) was purchased from BD Biosciences (Mountain View, Calif.). As Titanium™ Taq is a “hot start” enzyme, the enzyme was heated to 95° C. for 2 minutes, followed by rapid cooling to ambient temperature prior to any primer extension reactions. Similarly, all polymerase chain reactions included an initial 2 minute 95° C. denaturation cycle.
In a typical primer extension reaction (25 μL total volume), 5′-^32P labeled primer (P-1, 25 pmol) and template (T-1, 30 pmol) were mixed with buffer (10 mM bis-trispropane-HCl pH 9.1, 5 mM MgCl2, 40 mM potassium acetate, 0.1 mg/ml bovine serum albumin), heated (95° C., 5 min), and cooled to room temperature over 1 hour. Polymerase (1 unit) was added, and the mixture again heated (72° C., 10 sec). Each PCR was initiated by adding the appropriate dNTPs (100 μM final concentration). Aliquots (2 μL) were removed from the mixture at time intervals, diluted into a PAGE loading/quench buffer (2 μL, 20 mM EDTA in formamide), heated (95° C., 5 min) and resolved by electrophoresis using a 20% PAGE (7 M urea). The gel was analyzed by phosphorimager. To enhance reproducibility, master mixes of the primer/template in buffer were prepared in large scale (100 μL).
Running-start primer extension reactions were performed with KlenTaq to determine the ability of the enzyme to incorporate either TTP or 2-thioTTP opposite isoG. For each reaction, the polymerase was challenged to misincorporate the respective triphosphate opposite the isoG residue at position 26 in the template (T-1), 3 nucleotides downstream of the primer (Pf-1) terminus. Reactions were run in parallel, one containing dGTP and TTP, one containing dGTP and 2-thioTTP, one containing dGTP and isoCTP (positive control), and one containing only dGTP (negative control). Aliquots of each reaction were quenched at various times and analyzed by PAGE on a 20% polyacrylamide gel.

[3] = biological target: T1, KlenTaq polymerase; experiment: Direct nucleotide competition, single-turnover primer extension with APM gel separation; format: biochemical
Description: as §1
Single turnover primer extension reactions were performed by annealing 5′-^32P labeled primer (P-2f, 1 pmol) and template (T-2 or T-3, 1 pmol) in the appropriate buffer described above. Polymerase (1 pmol) was added, and the mixture was heated (72° C., 10 sec). The reaction was initiated by adding isoCTP (100 μM) and either 2-thioTTP (100 μM) or TTP (100 μM) in the presence of unlabeled trap DNA (P-2f, 100 pmol, T-2, 100 pmol). The reaction was quenched (20 mM EDTA in HCONH2) after 20 sec, and the samples resolved by 20% PAGE (7 M urea) containing p-acrylamidophenylmercury chloride (APM, 1 μg/mL). […] APM was synthesized as described [Igl88].
In two parallel reactions, one containing equal concentrations of 2-thioTTP and TTP, and one containing equal concentrations of 2-thioTTP and isoCTP, KlenTaq polymerase was challenged to choose a nucleotide to incorporate opposite isoG. […] The gel was analyzed via radioimaging.

[4] = biological target: T1, KlenTaq polymerase; experiment: PCR amplification using 2-thioTTP as substitute for TTP (30 rounds, template T-3); format: biochemical; settings: 30 rounds of PCR, dATP, dCTP, dGTP plus thymidine analog, 2% agarose gel
Description: as §1
Amplicons testing the substitution of 2-thioTTP for TTP in a PCR were generated as above, using primers P-2f and P-2r (1 pmol each), template T-3 (6×10^4 molecules), and either all four natural dNTPs (100 μM each) or by substituting 2-thioTTP for TTP.
After showing that 2-thioTTP is misincorporated less frequently than TTP opposite isoG residues, we then established that 2-thioTTP works in a PCR amplification. For this purpose, replicate polymerase chain reactions with KlenTaq polymerase were performed using the PCR replicon consisting of primers P-2f and P-2r and template T-3. Three reactions were run in parallel, one containing the four natural dNTPs (positive control), one containing dCTP, dGTP, dATP, and 2-thioTTP, and one without TTP (negative control). Each amplification was cycled for 30 rounds, and the products were analyzed by electrophoresis on a 2% agarose gel.

[5] = biological target: T1, KlenTaq polymerase; experiment: PCR fidelity assay of isoC:isoG base pair replication (acid cleavage at isoC); format: biochemical; settings: six letter PCR, template T-2, 30 cycles, fit to Y=100×(½+f/2)^x
Description: as §1
For each 6-letter nucleotide system investigated, seven parallel PCR mixtures were cycled (30 rounds, 95° C. for 45 sec. then 45° C. for 45 sec. then 72° C. for 1.5 min) with the same amounts of primers P-2f (^32P labeled) and P-2r (1 pmol; 6×10^11 molecules) and varying concentrations of template T2. […] As each 10 fold dilution in template was equivalent to ca. 3.3 rounds of amplification, the fidelity of the isoC:isoG replication could be monitored on a round-by-round basis, with each amplicon requiring a different number of exponential amplifications to consume the primers (Table 2.)
Following amplification, the mixtures were treated with an equal volume of acetic acid (0.1 mM), and heated (95° C., 30 min), a procedure that depyrimidinylates the iso-cytidines that have been incorporated. […] The NH4OH was allowed to evaporate, and the mixtures diluted in 2 volumes of gel loading buffer (98% formamide, 10 mM EDTA, 1 mg/mL bromophenol blue, 1 mg/mL xylene cyanol FF) and analyzed by denaturing PAGE (17%). […]

T1 sequence (P19821 281-832 limits assumed): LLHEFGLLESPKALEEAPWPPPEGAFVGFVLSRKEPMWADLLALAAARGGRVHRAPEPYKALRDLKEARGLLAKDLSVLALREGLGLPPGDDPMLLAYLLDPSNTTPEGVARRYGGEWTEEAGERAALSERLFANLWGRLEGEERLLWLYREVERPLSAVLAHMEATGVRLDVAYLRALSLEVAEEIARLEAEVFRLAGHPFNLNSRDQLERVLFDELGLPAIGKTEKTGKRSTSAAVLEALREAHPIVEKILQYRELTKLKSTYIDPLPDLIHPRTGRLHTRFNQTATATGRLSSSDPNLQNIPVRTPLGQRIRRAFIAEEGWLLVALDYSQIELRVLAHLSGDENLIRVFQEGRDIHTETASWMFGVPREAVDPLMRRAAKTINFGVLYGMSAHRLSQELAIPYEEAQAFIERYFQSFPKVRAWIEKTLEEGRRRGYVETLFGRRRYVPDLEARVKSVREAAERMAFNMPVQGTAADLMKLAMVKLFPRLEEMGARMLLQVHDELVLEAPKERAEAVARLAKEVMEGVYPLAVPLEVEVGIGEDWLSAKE

Compound	decrease in Tm by pair with 2-aminoadenine ([1]; 20 nucleotide duplex)	destabilization of the duplex (ΔG) by pair with 2-aminoadenine ([1]; nucleobase pair between 2-thioT and 2-aminoadenine)	incorporation / misincorporation opposite isoG (gel band, in words) [2]	substrate preference for incorporation opposite adenosine ([3]; 2-thioTTP and TTP in competition, template T-3)	extended product resulting from incorporation of 2-thioTTP opposite isoG ([3]; equal concentrations (100 μM) of 2-thioTTP and either TTP or isoCTP, template T-2, primer P-2f, 20 sec)	amount of PCR product [4]	fidelity-per-round of PCR for isoC:isoG base pair [5]	incorporation opposite isoG, isoCTP relative to TTP ([2]; after one and three minutes of incubation, dNTPs 100 μM)
Cc1cn([C@H]2C[C@H](O)[C@@H](CO)O2)c(=S)[nH]c1=O [2-thioT, 2-thiothymidine]	2.4 °C	0.8 kcal/mol						
Cc1cn([C@H]2C[C@H](O)[C@@H](COP(=O)(O)OP(=O)(O)OP(=O)(O)O)O2)c(=S)[nH]c1=O [2-thioTTP, 2-thiothymidine triphosphate]			misincorporated very little	prefers 2-thioTTP over TTP	less than 1%	comparable amounts of product	98%	
Nc1nc(=O)ccn1[C@H]1C[C@H](O)[C@@H](COP(=O)(O)OP(=O)(O)OP(=O)(O)O)O1 [isoCTP, 2′-deoxy-iso-cytidine triphosphate]			incorporated most efficiently					approximately 2 fold
